Measured values: article PMC10798532, “Enhanced catalytic performance of penicillin G acylase by covalent immobilization onto functionally-modified magnetic Ni0.4Cu0.5Zn0.1Fe2O4 nanoparticles” (PLOS ONE, 2024)
Structures can show the parent of a compound that is named as a salt.

Tested on: T1, Penicillin G acylase (PGA)
T1 construct: gene pac; alpha and beta subunits arise from one precursor; E. coli is only a guess (docking used PDB 1GM8)
Experiment: initial hydrolysis rates, Lineweaver-Burk; 6-APA by PDAB colorimetry at […] nm
Assay type: biochemical
Details: free enzyme; 20 °C; PBS, pH of kinetic run not printed (optimum pH 8.0); substrate 0.01-0.05 mol/L

CC1(C)S[C@@H]2[C@H](NC(=O)Cc3ccccc3)C(=O)N2[C@H]1C(=O)O [Penicillin G potassium salt]
Km: 22.7 mM
